For assay [1], the target named is mutant E. coli gamma-GK encoded by the proB74 allele (Escherichia coli, UniProt P0A7B5, D107N). The settings on record: proB74 mutant form of the bacterial enzyme. On the procedure:
(§1) FIG. 3 is a graph illustrating feedback inhibition of delta^1 -pyrroline-5-carboxylate synthetase by proline. Ammonium sulfate-fractionated extracts from E. coli CSH26 (.circle-solid.), E. coli CSH26 harboring PVAB2 (.smallcircle.), the proB74 allele (.orgate.), and the wild-type proB allele (.quadrature.) were assayed for gamma-GK activity by the method of Hayzer and Leisinger, J. Gen. Microbiol., 118, 1980, pp. 287-293.
(§2) P5CS has GSA dehydrogenase and gamma-GK activities, and the gamma-GK activity is feedback inhibited by proline. To confirm that the presently claimed sequence, PVAB2 of FIGS. 1A, 1B, 1C and 1D, encoded P5CS activity, ammonium sulfate-fractionated extracts of E. coli CSH26 and CSH26 harboring PVAB2 were assayed for GSA dehydrogenase-dependent gamma-GK enzyme activity. […] Because proline production is regulated by end-product inhibition of gamma-GK in bacteria, the plant enzyme P5CS was similarly subjected to feed-back control testing. […] The mutation responsible for the resistance to end-product inhibition of the gamma-GK in the proB 74 allele involves a substitution of an A for a G nucleotide, resulting in a change from aspartic acid to asparagine residue at position 107.
E. coli CSH26 cells and CSH26 harboring different plasmids were grown aerobically at 37° C. for about 16 hours. […]

The subject of assay [2] is wild-type E. coli gamma-GK. In words: biochemical. To be noted: more sensitive than Vigna enzyme. On the procedure: as §1, §2
(§3) E. coli CSH26 cells and CSH26 harboring different plasmids were grown aerobically at 37° C. for about 16 hours. The cells were harvested by centrifugation at 4,000× g for 10 minutes, and the cell paste resulting was suspended in 4 ml of buffer A (50 mM Tris-Hcl, 1 mM dithiothreitol) at […] Following sonication, (Benson Sonifier, Type 450) at 50 watts, the slurry was centrifuged at 4,000× g for 10 minutes and the supernatant fractionated by ammonium sulfate precipitation. For E. coli CSH26 containing PVAB2, the fraction precipitating between 0 and 30% saturation of ammonium sulfate was used for enzyme assay.

Assay [3] has as its target T1, wild-type E. coli gamma-GK (Escherichia coli, UniProt P0A7B5).
T1 construct: made in house; host or cells: E. coli CSH26 harboring the wild-type proB allele (plasmid pDU1 from A. Dandekar); ammonium sulfate fraction 40-60%
The experiment in a line: biochemical. On the procedure: as §1, §2, §3

In assay [4] the target is Vigna aconitifolia delta1-pyrroline-5-carboxylate synthetase (P5CS) (Vigna aconitifolia, UniProt P32296). The experiment in a line: biochemical. On the procedure:
as §1, §2, §3

What is called IC50 is the concentration at which inhibition is half-maximal. The low end stands for greater potency, the high end for weaker potency.

Chain of mutant E. coli gamma-GK encoded by the proB74 allele (P0A7B5 whole entry D107N): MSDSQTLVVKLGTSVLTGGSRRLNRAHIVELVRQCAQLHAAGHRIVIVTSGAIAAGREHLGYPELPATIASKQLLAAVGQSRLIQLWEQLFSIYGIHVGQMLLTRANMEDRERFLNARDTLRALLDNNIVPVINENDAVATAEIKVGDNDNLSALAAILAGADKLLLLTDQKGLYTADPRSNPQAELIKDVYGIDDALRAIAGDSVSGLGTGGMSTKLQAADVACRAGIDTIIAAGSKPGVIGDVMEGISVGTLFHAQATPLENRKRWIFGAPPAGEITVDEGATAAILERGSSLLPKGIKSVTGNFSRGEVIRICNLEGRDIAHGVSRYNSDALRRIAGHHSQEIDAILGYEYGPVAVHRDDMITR
Chain of Vigna aconitifolia delta1-pyrroline-5-carboxylate synthetase (P5CS) (P32296 whole entry): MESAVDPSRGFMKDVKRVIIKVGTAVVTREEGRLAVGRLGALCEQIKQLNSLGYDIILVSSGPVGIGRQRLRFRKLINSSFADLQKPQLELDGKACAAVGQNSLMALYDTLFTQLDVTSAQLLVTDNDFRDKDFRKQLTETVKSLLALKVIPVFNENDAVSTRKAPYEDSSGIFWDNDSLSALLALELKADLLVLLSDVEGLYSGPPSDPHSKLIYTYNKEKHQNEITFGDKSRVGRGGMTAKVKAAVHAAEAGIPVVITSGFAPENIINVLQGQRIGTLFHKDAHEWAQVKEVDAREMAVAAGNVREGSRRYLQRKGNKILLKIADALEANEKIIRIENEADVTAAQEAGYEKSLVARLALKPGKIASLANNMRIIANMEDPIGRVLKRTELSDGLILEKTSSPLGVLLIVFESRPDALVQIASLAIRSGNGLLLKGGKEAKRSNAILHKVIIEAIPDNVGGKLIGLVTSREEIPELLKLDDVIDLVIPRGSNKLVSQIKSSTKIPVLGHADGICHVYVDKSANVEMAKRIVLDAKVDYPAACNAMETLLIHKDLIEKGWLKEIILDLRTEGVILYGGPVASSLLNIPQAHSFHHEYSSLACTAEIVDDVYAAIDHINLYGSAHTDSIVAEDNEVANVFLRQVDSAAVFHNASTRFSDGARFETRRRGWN
T1 sequence (P0A7B5 whole entry): as the sequence (P0A7B5 whole entry D107N) above, with N107D counted along it

`O=C(O)[C@@H]1CCCN1` [proline]: the “sensitivity to end product (proline) inhibition, fold less sensitive” value in assay [1] is given as “approximately 200 fold”. For the same compound, the “sensitivity to proline of wild-type E. coli gamma-GK relative to the Vigna enzyme” value in assay [2] stood at 30 times. Also, the IC50 in assay [3] is 0.2 mM; in assay [4], 6 mM.

(Values after patent US5639950A, “Nucleotide sequence encoding for bifunctional enzyme for proline production” (The Ohio State University Research Foundation, priority 1994, dated 1997).)
